In patent US4548938A, “5-H-1,3,4-thiadiazolo[3,2-a]pyrimidin-5-one compounds” (Janssen Pharmaceutica N.V., priority 1985, dated 1985):
Counter-ions that a name gives are not always drawn. Like-named read-outs stand apart in the source and are kept apart here.

Columns and labels:
[1] = system: apomorphine-induced phenomena: agitation and stereotypic chewing; assay: apomorphine (APO) test in rats, part of the combined APO-TRY-NOR test; format: in vivo, male Wistar rats; conditions: Rattus norvegicus, sc, 0.5 h, read-out: ED50 (APO)-rat
[2] = system: tryptamine-induced bilateral tonic seizures; assay: tryptamine (TRY) test in rats, part of the combined APO-TRY-NOR test; format: in vivo, male Wistar rats; conditions: Rattus norvegicus, sc, 1.5 h, tryptamine 40 mg/kg i.v. at 90 min
[3] = system: norepinephrine-induced mortality; assay: norepinephrine (NOR) test in rats, part of the combined APO-TRY-NOR test; format: in vivo, male Wistar rats; conditions: Rattus norvegicus, sc, 2 h, norepinephrine 1.25 mg/kg i.v. at 120 min
Experimental: THE COMBINED APOMORPHINE (APO)-, TRYPTAMINE (TRY)- AND NOREPINEPHRINE (NOR) TEST IN RATS
The experimental animals used in this test were adult male Wistar rats (weight 240±10 g). After an overnight fast, the animals were treated subcutaneously (1 ml/100 g) with an aqueous solution of the compound under investigation (time=zero) and put in isolated observation cages. […] At the end of this 1 hour period (time=90 minutes) the same animals were injected intravenously with 40 mg/kg of tryptamine (TRY) and the presence of the typical tryptamine-induced bilateral tonic seizures was noted. Two hours after pretreatment (time=120 minutes) finally, the same animals were challenged with 1.25 mg/kg intravenously of norepinephrine (NOR) and possible mortality was looked for up to 60 minutes later.
The table 1 gives the ED50 -values of a number of the compounds under consideration. As used herein, the ED50 -value represents the dose which protects 50% of the animals from apomorphine-, tryptamine- or norepinephrine-induced phenomena.

[4] = system: apomorphine-induced emesis; assay: apomorphine test in dogs (APO-dog); format: in vivo; conditions: Canis lupus familiaris, sc; beagle dogs; apomorphine 0.31 mg/kg s.c. 1 hour after compound; protection from emesis
[5] = system: compound 48/80-induced gastric lesions; assay: gastric lesion test: lesions induced by compound 48/80; format: in vivo; conditions: Rattus norvegicus, read-out: gastric lesion test ED50
[6] = system: serotonin-induced contraction of rat caudal artery; assay: antagonistic activity on the effect of serotonin on the caudal artery of the rat; conditions: serotonin 40 ng/ml; minimal concentration reducing contraction amplitude to at least 50% of normal; 5 min
Experimental: ANTAGONISTIC ACTIVITY ON THE EFFECT OF SEROTONIN ON THE CAUDAL ARTERY OF THE RAT
Caudal arteries from fasted male rats (210-235 g) were used in the test. Two helical strips having a length of 5-6 cm and a width of 2 mm. were obtained from each artery and mounted vertically in a 100 ml organ bath containing an oxygenated Krebs-Henseleit solution. Submaximal contractions of the arterial strips were produced by adding single doses of serotonin (40 ng/ml) to the organ bath for 2 minutes with each time an interval of 10 minutes. The amplitude of the contraction was measured before and 5 minutes after adding the drug. After washing out, the agonist was added again three times in order to see whether the contraction was restored and normalized.

[7] = system: compound 48/80-induced lethality; assay: protection of rats from compound 48/80-induced lethality; format: in vivo, male Wistar rats; conditions: Rattus norvegicus, sc, 4 h, s.c., compound 48/80 0.5 mg/kg i.v. 1 hour after treatment, 50% protected against lethality, read-out: 48/80-test ED50
From the text: PROTECTION OF RATS FROM COMPOUND 48/80-INDUCED LETHALITY
Compound 48/80, a mixture of oligomers obtained by condensation of 4-methoxy-N-methyl-phenethylamine and formaldehyde has been described as a potent histamine releasing agent (Int. Arch. Allergy, 13, 336 (1958)). The protection from compound 48/80-induced lethal circulatory collapse appears to be a simple way of evaluating quantitatively the antihistaminic activity of test-compounds. Male rats of an inbred Wistar strain, weighing 240-260 g were used in the experiment. After overnight starvation the rats were transferred to conditioned laboratories (temp.=21±1° C., relative humidity=65±5%). The rats were treated subcutaneously or orally with a test compound or with the solvent (NaCl solution, 0.9%). One hour after treatment there was injected intravenously compound 48/80, freshly dissolved in water, at a dose of 0.5 mg/kg (0.2 ml/100 g of body weight). In control experiments, wherein 250 solvent-treated animals were injected with the standard dose of compound 48/80 not more than 2.8% of the animals survived after 4 hours, is therefore considered to be a safe criterion of a protective effect of drug administration.
In this connection the ED50 -values are the minimal doses of the concerned compounds, administered in the subcutaneous way, whereby 50% of the rats are protected against compound 48/80-induced lethality.

[8] = rats, compound 48/80, distension of the stomach completely absent in 50% of rats
[9] = s.c., rats, apomorphine 1.25 mg/kg i.v. 30 min after compound

Cc1nc2sccn2c(=O)c1CCN1CCC(c2c[nH]c3ccc(F)cc23)CC1 [compound 22, 6-[2-[4-(5-fluoro-1H-indol-3-yl)-1-piperidinyl]ethyl]-7-methyl-5H-thiazolo[3,2-a]pyrimidin-5-one]
ED50 [1]: 1.25 mg/kg
ED50 [2]: 0.31 mg/kg
ED50 [3]: 1.25 mg/kg
ED50 [4]: 0.12 mg/kg
ED50 [5, 8]: 0.08 mg/kg
caudal artery rat ED50 [6]: 1.25 ng/mL
ED50 [7]: 1.25 mg/kg

Cc1nc2sccn2c(=O)c1CCN1CCC(c2c[nH]c3ccccc23)CC1 [compound 12, 6-[2-[4-(1H-indol-3-yl)-1-piperidinyl]ethyl]-7-methyl-5H-thiazolo[3,2-a]pyrimidin-5-one]
ED50 [1, 9]: 0.08 mg/kg
ED50 [2]: 0.08 mg/kg
ED50 [3]: 0.31 mg/kg
ED50 [4]: 0.08 mg/kg
ED50 [5, 8]: 0.08 mg/kg
caudal artery rat ED50 [6]: 0.08 ng/mL
ED50 [7]: 0.02 mg/kg

Cc1nn2c(=O)c(CCN3CCC(c4c[nH]c5ccccc45)CC3)c(C)nc2s1 [compound 14, 6-[2-[4-(1H-indol-3-yl)-1-piperidinyl]ethyl]-2,7-dimethyl-5H-1,3,4-thiadiazolo[3,2-a]pyrimidin-5-one]
ED50 [1, 9]: 5 mg/kg
ED50 [2]: 1.25 mg/kg
ED50 [3]: 0.63 mg/kg
ED50 [5, 8]: 0.04 mg/kg
caudal artery rat ED50 [6]: 0.56 ng/mL
ED50 [7]: 0.04 mg/kg

Cc1nc2scc(C)n2c(=O)c1CCN1CCC(C(=O)c2ccc(F)cc2)CC1 [compound 4, 6-[2-[4-(4-fluorobenzoyl)-1-piperidinyl]ethyl]-3,7-dimethyl-5H-thiazolo[3,2-a]pyrimidin-5-one]
ED50 [1]: 0.16 mg/kg
ED50 [2]: 0.005 mg/kg
ED50 [3]: 1.25 mg/kg
ED50 [5, 8]: 0.01 mg/kg
caudal artery rat ED50 [6]: 0.32 ng/mL
ED50 [7]: 0.31 mg/kg

Cc1nc2sc(C)c(C)n2c(=O)c1CCN1CCC(c2c[nH]c3ccccc23)CC1 [compound 25, 6-[2-[4-(1H-indol-3-yl)-1-piperidinyl]ethyl]-2,3,7-trimethyl-5H-thiazolo[3,2-a]pyrimidin-5-one]
ED50 [1, 9]: 0.31 mg/kg
ED50 [2]: 0.16 mg/kg
ED50 [3]: 0.63 mg/kg
ED50 [4]: 0.015 mg/kg
ED50 [5, 8]: 0.16 mg/kg
caudal artery rat ED50 [6]: 0.32 ng/mL
ED50 [7]: 0.04 mg/kg

Cc1nc2sc3c(n2c(=O)c1CCN1CCC(C(=O)c2ccc(F)cc2)CC1)CCC3 [compound 8, 3-[2-[4-(4-fluorobenzoyl)-1-piperidinyl]ethyl]7,8-dihydro-2-methyl-4H,6H-cyclopenta[4,5]thiazolo[3,2-a]pyrimidin-4-one]
ED50 [1]: 1.25 mg/kg
ED50 [2]: 0.31 mg/kg
ED50 [3]: 0.63 mg/kg
ED50 [4]: 0.25 mg/kg
ED50 [5]: 0.04 mg/kg
caudal artery rat ED50 [6]: 0.32 ng/mL
ED50 [7]: 0.31 mg/kg

Cc1nc2sc(C)c(C)n2c(=O)c1CCN1CCC(C(=O)c2ccc(F)cc2)CC1 [compound 24, 6-[2-[4-(4-fluorobenzoyl)-1-piperidinyl]ethyl]-2,3,7-trimethyl-5H-thiazolo[3,2-a]pyrimidin-5-one]
ED50 [1, 9]: 0.63 mg/kg
ED50 [2]: 0.04 mg/kg
ED50 [3]: 0.63 mg/kg
ED50 [4]: 0.12 mg/kg
ED50 [5, 8]: 0.01 mg/kg
ED50 [7]: 0.08 mg/kg

Cc1nc2sc3c(n2c(=O)c1CCN1CCC(c2c[nH]c4ccccc24)CC1)CCC3 [compound 17, 7,8-dihydro-3-[2-[4-(1H-indol-3-yl)-1-piperidinyl]ethyl]-2-methyl-4H,6H-cyclopenta[4,5]thiazolo[3,2-a]-pyrimidin-4-one]
ED50 [1, 9]: 0.63 mg/kg
ED50 [2]: 0.16 mg/kg
ED50 [3]: 0.31 mg/kg
ED50 [4]: 0.03 mg/kg
ED50 [5, 8]: 0.31 mg/kg
caudal artery rat ED50 [6]: 0.31 ng/mL
ED50 [7]: 0.08 mg/kg

Cc1nc2sccn2c(=O)c1CCN1CCC(C)(C(=O)c2ccc(F)cc2)CC1 [compound 9, monohydrochloride]
ED50 [1]: 0.63 mg/kg
ED50 [2]: 0.16 mg/kg
ED50 [3]: 1.25 mg/kg
ED50 [4]: 0.25 mg/kg
ED50 [5, 8]: 0.005 mg/kg
caudal artery rat ED50 [6]: 0.32 ng/mL
ED50 [7]: 0.16 mg/kg

Cc1nc2sccn2c(=O)c1CCN1CCC(c2c[nH]c3ccc(Cl)cc23)CC1 [compound 21, 6-[2-[4-(5-chloro-1H-indol-3-yl)-1-piperidinyl]ethyl]-7-methyl-5H-thiazolo[3,2-a]pyrimidin-5-one]
ED50 [1]: 0.63 mg/kg
ED50 [3]: 1.25 mg/kg
ED50 [5]: 1.25 mg/kg
ED50 [7]: 2.5 mg/kg

Cc1nc2n(c(=O)c1CCN1CCC(c3c[nH]c4ccccc34)CC1)CCS2 [compound 15, 2,3-dihydro-6-[2-[4-(1H-indol-3-yl)-1-piperidinyl]-ethyl]-7-methyl-5H-thiazolo[3,2-a]pyrimidin-5-one]
ED50 [1]: 1.25 mg/kg
ED50 [3]: 1.25 mg/kg
ED50 [4]: 0.008 mg/kg
ED50 [5, 8]: 0.04 mg/kg
caudal artery rat ED50 [6]: 0.31 ng/mL
ED50 [7]: 0.02 mg/kg

Cc1nc2n(c(=O)c1CCN1CC[C@H](c3c[nH]c4ccccc34)[C@H](C)C1)CCS2 (relative stereo) [compound 23, cis-2,3-dihydro-6-[2-[4-(1H-indol-3-yl)-3-methyl-1-piperidinyl]ethyl]-7-methyl-5H-thiazolo[3,2-a]pyrimidin-5-one]
ED50 [5, 8]: 2.5 mg/kg
ED50 [7]: 2.5 mg/kg

Cc1nc2scc(C)n2c(=O)c1CCN1CCC(c2c[nH]c3ccccc23)CC1 [compound 11, 6-[2-[4-(1H-indol-3-yl)-1-piperidinyl]ethyl]-3,7-dimethyl-5H-thiazolo[3,2-a]pyrimidin-5-one]
ED50 [1, 9]: 0.08 mg/kg
ED50 [2]: 0.04 mg/kg
ED50 [3]: 0.16 mg/kg
ED50 [4]: 0.004 mg/kg
ED50 [5, 8]: 0.0025 mg/kg
caudal artery rat ED50 [6]: 0.14 ng/mL
ED50 [7]: 0.08 mg/kg

Cc1nc2sccn2c(=O)c1CCN1CCC(C(=O)c2ccc(F)cc2)(c2ccccc2)CC1 [compound 10, 6-[2-[4-(4-fuorobenzoyl)-4-phenyl-1-piperidinyl]ethyl]-7-methyl-5H-thiazolo-[3,2-a]pyrimidin-5-one]
ED50 [5, 8]: 2.5 mg/kg

Cc1nc2sc3ccccc3n2c(=O)c1CCN1CCC(c2c[nH]c3ccccc23)CC1 [compound 13, 3-[2-[4-(1H-indol-3-yl)-1-piperidinyl]ethyl]-2-methyl-4H-pyrimido[2,1-b]benzothiazol-4-one]
ED50 [1]: 1.25 mg/kg
ED50 [2]: 0.31 mg/kg
ED50 [3]: 0.16 mg/kg
ED50 [5, 8]: 0.04 mg/kg
caudal artery rat ED50 [6]: 0.32 ng/mL
ED50 [7]: 0.63 mg/kg

Cc1nn2c(=O)c(CCN3CCC(C(=O)c4ccc(F)cc4)CC3)c(C)nc2s1 [compound 7]
ED50 [1]: 2.5 mg/kg
ED50 [2]: 0.31 mg/kg
ED50 [3]: 0.63 mg/kg
ED50 [4]: 0.5 mg/kg
ED50 [5, 8]: 0.0025 mg/kg
caudal artery rat ED50 [6]: 1.25 ng/mL
ED50 [7]: 0.16 mg/kg

Cc1nc2n(c(=O)c1CCN1CCC(C(=O)c3ccc(F)cc3)CC1)CCCS2 [compound 2, 7-[2-[4-(4-fluorobenzoyl)-1-piperidinyl]ethyl]3,4-dihydro-8-methyl-2H,6H-pyrimido[2,1-b][1,3]thiazin-6-one]
ED50 [1]: 0.31 mg/kg
ED50 [2]: 0.63 mg/kg
ED50 [3]: 1.25 mg/kg
ED50 [4]: 0.03 mg/kg
ED50 [5, 8]: 0.01 mg/kg
caudal artery rat ED50 [6]: 0.32 ng/mL
ED50 [7]: 0.16 mg/kg

Cc1nc2scc(C)n2c(=O)c1CCN1CCC(c2c[nH]c3ccc(F)cc23)CC1 [compound 20, 6-[2-[4-(5-fluoro-1H-indol-3-yl)-1-piperidinyl]ethyl]-3,7-dimethyl-5H-thiazolo[3,2-a]pyrimidin-5-one]
ED50 [1]: 1.25 mg/kg
ED50 [2]: 0.63 mg/kg
ED50 [4]: 0.12 mg/kg
ED50 [5, 8]: 0.31 mg/kg
caudal artery rat ED50 [6]: 0.31 ng/mL
ED50 [7]: 0.63 mg/kg
